Experimental data taken from publication PMC11876601 (Molecular Systems Biology, 2025).

Key:
Assay in all cases: cells
Set-up in all cases: Viability of PDAC cell lines, ATPlite luminescence, 11-dose single-agent curve fit
PANC-1 = details: Homo sapiens, PANC-1, 72 h, read-out: EC50 [nM]
Protocol: (§1) Afterward, small amounts were transferred to 384-well intermediate plates (Greiner Bio-One GmbH, Germany). […] For drug combination screening, 1000 to 5000 cells were seeded into 384-well plates (CulturPlate™, Perkin Elmer, MA, USA) using a Multidrop™ Combi Reagent Dispenser (Thermo Scientific, MA, USA) in 50 µl medium per well 24 h prior to drug treatment (seeding densities see Appendix Table S1). […] The final DMSO concentration in each well was 0.2%. […] Eight wells per plate without library drug served as negative controls, and sixteen wells per plate containing 5 µM Staurosporine served as positive controls. […] Next, we analyzed the drug sensitivity of immortalized duct cell line HPDE to detect effects unrelated to pancreatic cancer.

PSN-1 = details: Homo sapiens, PSN1, 72 h, read-out: EC50 [nM]
Protocol: as §1

PaTu-8988-T = details: Homo sapiens, PaTu 8988t, 72 h, read-out: EC50 [nM]
Protocol: as §1

Colo-357 = details: Homo sapiens, COLO357, 72 h, read-out: EC50 [nM]
Protocol: as §1

FAMPAC = details: 72 h, read-out: EC50 [nM]
Protocol: as §1

Dan-G = details: 72 h, read-out: EC50 [nM]
Protocol: as §1

BxPC-3 = details: Homo sapiens, BXPC-3, 72 h, read-out: EC50 [nM]
Protocol: as §1

MiaPaCa-2 = details: Homo sapiens, MIA PaCa-2, 72 h, read-out: EC50 [nM]
Protocol: as §1

Suit2-07 = details: 72 h, read-out: EC50 [nM]
Protocol: as §1

AsPC-1 = details: Homo sapiens, ASPC1, 72 h, read-out: EC50 [nM]
Protocol: as §1

HPDE = details: HPDE, 72 h, read-out: EC50 [nM]
Protocol: as §1

HuP-T4 = details: Homo sapiens, HuP-T4, 72 h, read-out: EC50 [nM]
Protocol: as §1

Capan-1 = details: Homo sapiens, CAPAN-1, 72 h, read-out: EC50 [nM]
Protocol: as §1

SMILES	EC50 (PANC-1)	EC50 (PSN-1)	EC50 (PaTu-8988-T)	EC50 (Colo-357)	EC50 (FAMPAC)	EC50 (Dan-G)	EC50 (BxPC-3)	EC50 (MiaPaCa-2)	EC50 (Suit2-07)	EC50 (AsPC-1)	EC50 (HPDE)	EC50 (HuP-T4)	EC50 (Capan-1)
CCCS(=O)(=O)Nc1ccc(F)c(C(=O)c2c[nH]c3ncc(-c4ccc(Cl)cc4)cc23)c1F [Vemurafenib]	6.65 nM	> 10000 nM	708 nM	5000 nM	2990 nM	> 10000 nM	> 10000 nM	> 10000 nM	1590 nM	869 nM	> 10000 nM	> 10000 nM	> 10000 nM
CCN(CCCOc1ccc2c(Nc3cc(CC(=O)Nc4cccc(F)c4)[nH]n3)ncnc2c1)CCOP(=O)(O)O [Barasertib]	74 nM	32.6 nM	10300 nM	852 nM	40.1 nM	296 nM	53.6 nM	4.24 nM	3290 nM	56.3 nM	74.6 nM	56.8 nM	42 nM
N#CC1(c2ccc(NC(=O)c3cccnc3NCc3ccncc3)cc2)CCCC1 [Apatinib]	2350 nM	> 10000 nM	> 10000 nM	4280 nM	> 10000 nM	5380 nM	5230 nM	> 10000 nM	1420 nM	452 nM	7430 nM	283 nM	> 10000 nM
Cn1cc(-c2cc3c(N4CCN(c5ncc([C@@](C)(N)c6ccc(F)cc6)cn5)CC4)ncnn3c2)cn1 [Avapritinib]	2600 nM	1010 nM	1570 nM	420 nM	2070 nM	3820 nM	3240 nM	1710 nM	3550 nM	1990 nM	976 nM	701 nM	3830 nM
CCC(=O)N1CC[C@H](Nc2ncnc3c2CN(c2cnc(OC)c(C(F)(F)F)c2)CC3)C1 [Leniolisib]	> 10000 nM	8970 nM	9180 nM	3830 nM	2610 nM	6460 nM	2210 nM	> 10000 nM	4720 nM	2110 nM	6030 nM	733 nM	4340 nM
Cc1cc(C)c(/C=C2\C(=O)Nc3ccccc32)[nH]1 [Semaxanib]	66.8 nM	127 nM	815 nM	317 nM	43.5 nM	169 nM	5.83 nM	> 10000 nM	2320 nM	3330 nM	> 10000 nM	42.4 nM	5010 nM
C[C@@H](c1ccc2nccn2c1)n1nnc2ncc(-c3cnn(C)c3)nc21 [Volitinib]	3950 nM	16.9 nM	> 10000 nM	226 nM	1030 nM	5780 nM	2030 nM	8640 nM	285 nM	114 nM	80 nM	91.1 nM	> 10000 nM
Cc1[nH]c(/C=C2\C(=O)Nc3ccccc32)c(C)c1CCC(=O)O [Orantinib]	568 nM	366 nM	135 nM	2.98 nM	0.01 nM	487 nM	1040 nM	47 nM	2.77 nM	145 nM	61.9 nM	2430 nM	17.6 nM
C[C@H]1Oc2cc(cnc2N)-c2c(nn(C)c2C#N)CN(C)C(=O)c2ccc(F)cc21 [Lorlatinib]	8920 nM	554 nM	5400 nM	6220 nM	207 nM	3210 nM	1270 nM	2650 nM	3240 nM	4980 nM	999 nM	1320 nM	1070 nM
